Measurements published in ChEMBL document CHEMBL3217542, “Chiral diaminocyclohexane coupling polyphenols: A new class of anticancer agents” (Medchemcomm, 2012).
Calls of active or inactive are those of the source. No cut-off for these calls is given here.

How the values were obtained:
MDA-MB-468 = assay: Cytotoxicity against human MDA-MB-468 cells after 2 days by SRB assay; type: functional, cell-based; details: MDA-MB-468, 48 h
[1] = Cytotoxicity against human fibroblasts after 2 days by SRB assay; type: cell-based; details: Fibroblast, 48 h
MDA-MB-231 = assay: Cytotoxicity against human MDA-MB-231 cells after 2 days by SRB assay; type: functional, cell-based; details: MDA-MB-231, 48 h
[2] = Cytotoxicity against human HBT-174 cells after 2 days by SRB assay; type: functional, cell-based; details: HBT-174, 48 h
[3] = Selectivity index, ratio of IC50 for human fibroblasts to IC50 for human HBT-174 cells
MCF7 [4] = assay: Cytotoxicity against human MCF7 cells after 2 days by SRB assay; type: functional, cell-based; details: MCF7, 48 h
MCF7 [5] = assay: Selectivity index, ratio of IC50 for human fibroblasts to IC50 for human MCF7 cells
NCI-H460 = assay: Cytotoxicity against human NCI-H460 cells after 2 days by SRB assay; type: functional, cell-based; details: NCI-H460, 48 h
MDA-MB-453 [6] = assay: Cytotoxicity against human MDA-MB-453 cells after 2 days by SRB assay; type: functional, cell-based; details: MDA-MB-453, 48 h
MCF7 [7] = assay: Reduction of Bcl-xL gene expression in human MCF7 cells at 5 uM after 24 hrs by RT-PCR analysis relative to control; type: functional; design: scale not given: the % may be the effect or the level left
MDA-MB-453 [8] = assay: Antimammosphere formation activity in human MDA-MB-453 cells assessed as ALDH positive cells at 1 uM after 4 days relative to control; type: functional
MCF7 [9] = assay: Reduction of Bcl-2 gene expression in human MCF7 cells at 5 uM after 24 hrs by RT-PCR analysis relative to control; type: functional; design: scale not given: the % may be the effect or the level left
MCF7 [10] = assay: Reduction of p53 gene expression in human MCF7 cells at 5 uM after 24 hrs by RT-PCR analysis relative to control; type: functional; design: scale not given: the % may be the effect or the level left
MCF7 [11] = assay: Reduction of cyclin-D1 gene expression in human MCF7 cells at 5 uM after 24 hrs by RT-PCR analysis relative to control; type: functional; design: scale not given: the % may be the effect or the level left
HBT-174 = assay: Inhibition of colony formation in human HBT-174 cells assessed as decrease in colony size and number of colony at 0.5 to 5 uM treated every 3 days for 10 days by SRB staining; type: functional, cell-based
MDA-MB-453 [12] = assay: Antimammosphere formation activity in human MDA-MB-453 cells assessed as ALDH positive cells at 5 uM after 4 days relative to control; type: functional
MDA-MB-453 [13] = assay: Antimammosphere formation activity in human MDA-MB-453 cells assessed as ALDH positive cells at 10 uM after 4 days relative to control; type: functional

Structure (SMILES) | IC50 (MDA-MB-468) [µM] | IC50 [1] [µM] | IC50 (MDA-MB-231) [µM] | IC50 [2] [µM] | Ratio IC50 [3] | IC50 (MCF7 [4]) [µM] | Ratio IC50 (MCF7 [5]) | IC50 (NCI-H460) [µM] | IC50 (MDA-MB-453 [6]) [µM] | Activity (MCF7 [7]) [%] | Activity (MDA-MB-453 [8]) [%] | Activity (MCF7 [9]) [%] | Activity (MCF7 [10]) [%] | Activity (MCF7 [11]) [%] | inhibition (HBT-174) | Activity (MDA-MB-453 [12]) [%] | Activity (MDA-MB-453 [13]) [%]
Oc1ccc(CN[C@@H]2CCCC[C@H]2NCc2ccc(O)c(O)c2)cc1O | 1.2 | 32 | 1.4 | 3.3 | 9.7 | 2.5 | 12.8 | 0.9 | 1.8 |  |  |  |  |  |  |  | 
O=C(O)c1ccc(O)c(CN[C@@H]2CCCC[C@H]2NCc2cc(C(=O)O)ccc2O)c1 |  | 108 |  |  |  | 8.4 | 12.8 |  |  |  |  |  |  |  |  |  | 
Oc1cccc(CN[C@@H]2CCCC[C@H]2NCc2cccc(O)c2O)c1O | 3.3 | 106 | 2.4 | 6.8 | 15.6 | 4.8 | 22.1 | 1.8 | 4.6 | 22.2 | 90 | 15.6 | 33.1 | 24.8 | Active | 25 | <5
Oc1ccc(O)c(CN[C@@H]2CCCC[C@H]2NCc2cc(O)ccc2O)c1 | 5.9 | 75 | 3.8 | 8 | 9.4 | 5.2 | 14.4 | 2.4 | 5.2 |  |  |  |  |  |  |  | 
Oc1ccc(CN[C@@H]2CCCC[C@H]2NCc2ccc(O)cc2O)c(O)c1 | 4.4 | 82 | 4 | 8.2 | 10 | 6 | 13.7 | 2.2 | 4.5 |  |  |  |  |  |  |  | 
Cc1ccc(O)c(CN[C@@H]2CCCC[C@H]2NCc2cc(C)ccc2O)c1 |  | 37 |  |  |  | 3.6 | 10.3 |  |  |  |  |  |  |  |  |  | 
